PubChem BioAssay AID330 (DTP/NCI, 2004)
Several values for one entry are separate records, joined by “and”; a condition that tells them apart may be missing. Equal entries are not always repeated. Inconclusive results and toxic doses are left out. Rule for the calls: active = survival T/C of 150% or more; inactive = T/C below 125% in these data.

System: P388 leukemia ip, CD2F1 mice, survival T/C
Assay: NCI In Vivo Anticancer Drug Screen. Data for tumor model P388 Leukemia (intraperitoneal) in CD2F1 (CDF1) mice
Conditions: endpoint: median survival time, higher = longer survival
Summary of the method: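 Mice carrying the transplanted tumor received test compound or vehicle. Survival was recorded in each group, and the value is the treated-group measurement divided by that of the vehicle-treated control group.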

[1] = dose: 50.0 mg/kg/injection, schedule: Q01DX009 (ip), vehicle: saline with Tween-80
[2] = dose: 100.0 mg/kg/injection, schedule: Q01DX009 (ip), vehicle: saline with Tween-80
[3] = dose: 50.0 mg/kg/injection, schedule: Q01DX005 (ip), vehicle: saline with Tween-80
[4] = dose: 100.0 mg/kg/injection, schedule: Q01DX005 (ip), vehicle: saline with Tween-80
[5] = dose: 200.0 mg/kg/injection, schedule: Q01DX005 (ip), vehicle: saline with Tween-80
[6] = dose: 12.5 mg/kg/injection, schedule: Q01DX005 (ip), vehicle: saline with Tween-80
[7] = dose: 25.0 mg/kg/injection, schedule: Q01DX005 (ip), vehicle: saline with Tween-80
[8] = dose: 60.0 mg/kg/injection, schedule: Q01DX005 (ip), vehicle: saline with Tween-80
[9] = dose: 120.0 mg/kg/injection, schedule: Q01DX005 (ip), vehicle: saline with Tween-80
[10] = dose: 240.0 mg/kg/injection, schedule: Q01DX005 (ip), vehicle: saline with Tween-80
[11] = dose: 50.0 mg/kg/injection, schedule: Q01DX005 (ip), vehicle: Klucel (hydroxypropylcellulose) (HPC)
[12] = dose: 100.0 mg/kg/injection, schedule: Q01DX005 (ip), vehicle: Klucel (hydroxypropylcellulose) (HPC)
[13] = dose: 200.0 mg/kg/injection, schedule: Q01DX005 (ip), vehicle: Klucel (hydroxypropylcellulose) (HPC)
[14] = dose: 50.0 mg/kg/injection, schedule: Q01DX009 (ip), vehicle: Klucel (hydroxypropylcellulose) (HPC)
[15] = dose: 100.0 mg/kg/injection, schedule: Q01DX009 (ip), vehicle: Klucel (hydroxypropylcellulose) (HPC)
[16] = dose: 100.0 mg/kg/injection, schedule: Q04DX003 (ip), vehicle: Klucel (hydroxypropylcellulose) (HPC)
[17] = dose: 200.0 mg/kg/injection, schedule: Q04DX003 (ip), vehicle: Klucel (hydroxypropylcellulose) (HPC)
[18] = dose: 50.0 mg/kg/injection, schedule: Q01DX009 (ip), vehicle: saline
[19] = dose: 100.0 mg/kg/injection, schedule: Q01DX009 (ip), vehicle: saline

Measured: T/C

N#C/C(=C1C=C/C(=N/O)C=C/1Cl)c1ccccc1
inactive: [1] 95 % of control | [2] 93 % of control | dose: 200.0 mg/kg/injection, schedule: Q01DX009 (ip), vehicle: saline with Tween-80 94 % of control | dose: 400.0 mg/kg/injection, schedule: Q01DX009 (ip), vehicle: saline with Tween-80 94 % of control

C=C(C#N)N(C)c1ccccc1
inactive: dose: 3.12 mg/kg/injection, schedule: Q01DX005 (ip), vehicle: Klucel (hydroxypropylcellulose) (HPC) 94 % of control | dose: 6.25 mg/kg/injection, schedule: Q01DX005 (ip), vehicle: Klucel (hydroxypropylcellulose) (HPC) 111 % of control | dose: 12.5 mg/kg/injection, schedule: Q01DX005 (ip), vehicle: Klucel (hydroxypropylcellulose) (HPC) 94 % of control

CCOC(=O)C/C(O)=C(\N=Nc1nc[nH]c1C(N)=O)C(=O)OCC
inactive: [3] 105 % of control | [4] 91 % of control | [5] 97 % of control

CCCCNCCC(O)c1cc2ccc(C(F)(F)F)cc2c2cc(C(F)(F)F)ccc12 (centres undefined)
inactive: [1] 86 % of control | [2] 91 % of control

CC(=O)Nc1ccc(NN=O)cn1
inactive: dose: 3.12 mg/kg/injection, schedule: Q01DX009 (ip), vehicle: water 113 % of control | dose: 6.25 mg/kg/injection, schedule: Q01DX009 (ip), vehicle: water 106 % of control | dose: 12.5 mg/kg/injection, schedule: Q01DX009 (ip), vehicle: water 110 % of control and 114 % of control | dose: 25.0 mg/kg/injection, schedule: Q01DX009 (ip), vehicle: water 116 % of control

CCOC(=O)C(Cc1ccc(O)cc1)NC(=O)C(CCCCN)N(C(=O)OCc1ccccc1)C(=O)OCc1ccccc1 (centres undefined)
inactive: [3] 96 % of control | [4] 94 % of control | [5] 92 % of control

COC(=O)CCC(=O)C(C#N)c1ccc(CC#N)cc1 (centres undefined)
inactive: [6] 96 % of control | [7] 98 % of control | [3] 102 % of control and 95 % of control

O=C(NC1CCCCC1)OCc1c(COC(=O)NC2CCCCC2)c(-c2ccc(Cl)c(Cl)c2)n2c1CCCC2
inactive: dose: 12.5 mg/kg/injection, schedule: Q01DX009 (ip), vehicle: distilled water + Tween-80 96 % of control | dose: 25.0 mg/kg/injection, schedule: Q01DX009 (ip), vehicle: distilled water + Tween-80 89 % of control and 91 % of control | dose: 50.0 mg/kg/injection, schedule: Q01DX009 (ip), vehicle: distilled water + Tween-80 87 % of control and 96 % of control | dose: 100.0 mg/kg/injection, schedule: Q01DX009 (ip), vehicle: distilled water + Tween-80 99 % of control and 100 % of control | dose: 200.0 mg/kg/injection, schedule: Q01DX009 (ip), vehicle: distilled water + Tween-80 99 % of control and 116 % of control | dose: 400.0 mg/kg/injection, schedule: Q01DX009 (ip), vehicle: distilled water + Tween-80 116 % of control

CC(=O)Nc1ccc(/C=C/c2csnn2)cc1
inactive: [8] 92 % of control | [9] 87 % of control | [10] 92 % of control

C=C(C)C(=O)NCC(=O)NCC(=O)NCC(=O)Oc1ccc([N+](=O)[O-])cc1
inactive: dose: 50.0 mg/kg/injection, schedule: Q04DX003 (ip), vehicle: saline with Tween-80 100 % of control | dose: 100.0 mg/kg/injection, schedule: Q04DX003 (ip), vehicle: saline with Tween-80 90 % of control | dose: 200.0 mg/kg/injection, schedule: Q04DX003 (ip), vehicle: saline with Tween-80 99 % of control

COC(=O)c1c(C)cc(OC)c(C/C=C(\C)CCCc2coc(C=C(C)C)c2)c1OC
inactive: dose: 4.5 mg/kg/injection, schedule: Q01DX005 (ip), vehicle: Klucel (hydroxypropylcellulose) (HPC) 106 % of control | dose: 9.0 mg/kg/injection, schedule: Q01DX005 (ip), vehicle: Klucel (hydroxypropylcellulose) (HPC) 100 % of control | dose: 18.0 mg/kg/injection, schedule: Q01DX005 (ip), vehicle: Klucel (hydroxypropylcellulose) (HPC) 99 % of control | dose: 36.0 mg/kg/injection, schedule: Q01DX005 (ip), vehicle: Klucel (hydroxypropylcellulose) (HPC) 98 % of control | [11] 97 % of control | dose: 72.0 mg/kg/injection, schedule: Q01DX005 (ip), vehicle: Klucel (hydroxypropylcellulose) (HPC) 104 % of control | [12] 98 % of control | [13] 99 % of control

CNc1ccc(Nc2cccc(C)c2)c2c1C(=O)c1ccccc1C2=O
inactive: [14] 100 % of control | [15] 91 % of control | dose: 200.0 mg/kg/injection, schedule: Q01DX009 (ip), vehicle: Klucel (hydroxypropylcellulose) (HPC) 113 % of control

CCC1COS(=O)(=O)CS(=O)(=O)O1 (centres undefined)
inactive: [8] 101 % of control | [9] 100 % of control | [10] 105 % of control

Cc1cccc(Nc2cc(=O)[nH]c(=O)[nH]2)c1
inactive: [16] 110 % of control | [17] 98 % of control

Cc1ccc(C(=NN=C(c2ccc(C)cc2)c2ccc(C)cc2)c2ccc(C)cc2)cc1
inactive: dose: 100.0 mg/kg/injection, schedule: Q04DX002 (ip), vehicle: saline with Tween-80 90 % of control | dose: 200.0 mg/kg/injection, schedule: Q04DX002 (ip), vehicle: saline with Tween-80 93 % of control

CC1(C#N)CCCC(c2ccccc2)(c2ccccc2)C1=O (centres undefined)
inactive: [16] 103 % of control | [17] 98 % of control | dose: 400.0 mg/kg/injection, schedule: Q04DX003 (ip), vehicle: Klucel (hydroxypropylcellulose) (HPC) 100 % of control

S=c1s/c(=C\c2ccccc2)c2nc3ccccc3n12
inactive: [18] 90 % of control | [19] 88 % of control

Cc1[c-]onc1C.Cc1[c-]onc1C.[Ag].[Ag].[NH-]S(=O)(=O)c1ccc(N=Nc2cc(N=Nc3ccc(S([NH-])(=O)=O)cc3)c3c(NC(=O)C(Cl)Cl)cccc3c2OC(=O)C(Cl)Cl)cc1
inactive: dose: 3.13 mg/kg/injection, schedule: Q01DX009 (ip), vehicle: saline with Tween-80 91 % of control | dose: 6.25 mg/kg/injection, schedule: Q01DX009 (ip), vehicle: saline with Tween-80 89 % of control | dose: 25.0 mg/kg/injection, schedule: Q01DX009 (ip), vehicle: saline with Tween-80 89 % of control | [1] 99 % of control

CC1(Cc2c(N)[nH]c(=S)[nH]c2=O)OCCO1
inactive: [3] 105 % of control | [4] 110 % of control | [5] 110 % of control

c1ccc2c(-c3nc4ccccc4c4ccccc34)nccc2c1
inactive: dose: 100.0 mg/kg/injection, schedule: Q01DX001 (ip), vehicle: saline with Tween-80 92 % of control | dose: 200.0 mg/kg/injection, schedule: Q01DX001 (ip), vehicle: saline with Tween-80 92 % of control | dose: 400.0 mg/kg/injection, schedule: Q01DX001 (ip), vehicle: saline with Tween-80 99 % of control

CCN(CC)CCOc1ccc(C2=C(c3ccc(OC)cc3)Cc3cc(OC)ccc32)cc1
inactive: dose: 6.25 mg/kg/injection, schedule: Q01DX005 (ip), vehicle: saline with Tween-80 101 % of control | [6] 101 % of control | [7] 105 % of control | [3] 106 % of control | [4] 106 % of control | [5] 102 % of control

c1ccc(-c2cc(-c3ccccc3)o/c(=N/n3cnnc3)c2)cc1
inactive: [11] 99 % of control | [12] 89 % of control | [13] 89 % of control

CCCCNC(=O)SCCC(=O)OC
inactive: [11] 100 % of control | [12] 99 % of control | [13] 105 % of control

OC1CC2CCC(C1)N2c1ccccc1 (centres undefined)
inactive: dose: 50.0 mg/kg/injection, schedule: Q01DX005 (ip), vehicle: saline 115 % of control | dose: 100.0 mg/kg/injection, schedule: Q01DX005 (ip), vehicle: saline 97 % of control

Cc1ccc(NC(=O)Oc2cc(C)c(Br)c(C)c2)cc1Cl
inactive: [18] 107 % of control | [19] 95 % of control | dose: 200.0 mg/kg/injection, schedule: Q01DX009 (ip), vehicle: saline 91 % of control

COC(=O)c1ccccc1NC(CCN1CCN(c2ccccc2)CC1)=NC(C)(C)C
inactive: [14] 100 % of control | [15] 102 % of control

COC(=O)C(=O)C1(c2nc3n(c2O)/C(=N/C(=O)Nc2ccc(Cl)cc2)N=N3)CCCCCC1=O (centres undefined)
inactive: [8] 100 % of control | [9] 99 % of control | [10] 94 % of control
